Assay results reported in PubChem BioAssay AID256 (DTP/NCI, 2004).
Several values for one entry are separate records, joined by “and”; a condition that tells them apart may be missing. Identical values can stand only once. Toxic doses and inconclusive results are not listed. Rule for the calls: active = survival T/C of 150% or more; inactive = T/C below 125% in these data.

Test system: CD2F1 mice, L1210 leukemia ip, survival T/C
Experiment: NCI In Vivo Anticancer Drug Screen. Data for tumor model L1210 Leukemia (intraperitoneal) in CD2F1 (CDF1) mice
Conditions: higher = longer survival
Procedure, shortened: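 Ratio T/C, where T is the treated-group value and C the vehicle-dosed control value, from mice implanted with a transplantable tumor.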

[1] = endpoint: mean survival time, dose: 100.0 mg/kg/injection, schedule: Q04DX003 (ip), vehicle: saline with Tween-80
[2] = endpoint: mean survival time, dose: 200.0 mg/kg/injection, schedule: Q04DX003 (ip), vehicle: saline with Tween-80
[3] = endpoint: mean survival time, dose: 400.0 mg/kg/injection, schedule: Q04DX003 (ip), vehicle: saline with Tween-80
[4] = endpoint: mean survival time, dose: 100.0 mg/kg/injection, schedule: Q01DX009 (ip), vehicle: saline with Tween-80
[5] = endpoint: mean survival time, dose: 200.0 mg/kg/injection, schedule: Q01DX009 (ip), vehicle: saline with Tween-80
[6] = endpoint: mean survival time, dose: 400.0 mg/kg/injection, schedule: Q01DX009 (ip), vehicle: saline with Tween-80

Measured: T/C

CC(=O)c1cc(-c2ccc(Cl)cc2)nc2c(Cl)cc(Cl)cc12
inactive: endpoint: mean survival time, dose: 100.0 mg/kg/injection, schedule: Q01DX001 (ip), vehicle: saline 89 % of control | endpoint: mean survival time, dose: 200.0 mg/kg/injection, schedule: Q01DX001 (ip), vehicle: saline 87 % of control | endpoint: mean survival time, dose: 400.0 mg/kg/injection, schedule: Q01DX001 (ip), vehicle: saline 91 % of control

Oc1ccc(-c2ccc(O)cc2)cc1
inactive: endpoint: mean survival time, dose: 50.0 mg/kg/injection, schedule: Q04DX003 (ip), vehicle: saline with Tween-80 100 % of control | [1] 101 % of control and 107 % of control | [2] 109 % of control | [3] 121 % of control

Cc1cc(O)c(N=Nc2ccc(C(=O)O)cc2)cc1C
inactive: endpoint: mean survival time, dose: 12.5 mg/kg/injection, schedule: Q01DX009 (ip), vehicle: saline 106 % of control | endpoint: mean survival time, dose: 12.5 mg/kg/injection, schedule: Q01DX009 (ip), vehicle: suspension in saline 97 % of control | endpoint: mean survival time, dose: 25.0 mg/kg/injection, schedule: Q01DX009 (ip), vehicle: saline 110 % of control | endpoint: mean survival time, dose: 25.0 mg/kg/injection, schedule: Q01DX009 (ip), vehicle: suspension in saline 101 % of control | endpoint: mean survival time, dose: 50.0 mg/kg/injection, schedule: Q01DX009 (ip), vehicle: saline 111 % of control | endpoint: mean survival time, dose: 50.0 mg/kg/injection, schedule: Q01DX009 (ip), vehicle: suspension in saline 95 % of control | endpoint: mean survival time, dose: 100.0 mg/kg/injection, schedule: Q01DX009 (ip), vehicle: saline 94 % of control | endpoint: mean survival time, dose: 100.0 mg/kg/injection, schedule: Q01DX009 (ip), vehicle: suspension in saline 94 % of control | endpoint: mean survival time, dose: 200.0 mg/kg/injection, schedule: Q01DX009 (ip), vehicle: suspension in saline 97 % of control | endpoint: mean survival time, dose: 400.0 mg/kg/injection, schedule: Q01DX009 (ip), vehicle: saline 93 % of control | endpoint: mean survival time, dose: 400.0 mg/kg/injection, schedule: Q01DX009 (ip), vehicle: suspension in saline 101 % of control

CC12CCC(/C(=C/NNc3ccc([N+](=O)[O-])cc3[N+](=O)[O-])C1=O)C2(C)C (stereo not given)
inactive: [1] 93 % of control | [2] 90 % of control | [3] 96 % of control

Cc1ccc(NCC2(/N=C/c3ccccc3)OC(CO)C(O)C2O)cc1 (stereo not given)
inactive: endpoint: mean survival time, dose: 100.0 mg/kg/injection, schedule: Q01DX009 (ip), vehicle: Klucel (hydroxypropylcellulose) (HPC) 109 % of control | endpoint: mean survival time, dose: 177.0 mg/kg/injection, schedule: Q01DX009 (ip), vehicle: saline with Tween-80 113 % of control | endpoint: mean survival time, dose: 200.0 mg/kg/injection, schedule: Q01DX009 (ip), vehicle: Klucel (hydroxypropylcellulose) (HPC) 118 % of control | endpoint: mean survival time, dose: 266.0 mg/kg/injection, schedule: Q01DX009 (ip), vehicle: Klucel (hydroxypropylcellulose) (HPC) 120 % of control

O=C(O)c1ccccc1C(=O)CC(O)(C(F)(F)F)C(F)(F)F
inactive: [1] 101 % of control | [2] 97 % of control | [3] 102 % of control

O=C(O)/C=C/C(=O)c1ccccc1
inactive: endpoint: mean survival time, dose: 12.5 mg/kg/injection, schedule: Q04DX003 (ip), vehicle: saline with Tween-80 104 % of control | endpoint: mean survival time, dose: 25.0 mg/kg/injection, schedule: Q04DX003 (ip), vehicle: saline with Tween-80 98 % of control

O=C(O)C1=CC(O)C(O)C(O)C1 (stereo not given)
inactive: endpoint: mean survival time, dose: 100.0 mg/kg/injection, schedule: Q04DX003 (ip), vehicle: saline 102 % of control | endpoint: mean survival time, dose: 200.0 mg/kg/injection, schedule: Q04DX003 (ip), vehicle: saline 96 % of control | endpoint: mean survival time, dose: 400.0 mg/kg/injection, schedule: Q04DX003 (ip), vehicle: saline 90 % of control

N#CCCN(CC(O)c1cc2ccccc2c2ccccc12)C1CCCCC1 (stereo not given)
inactive: endpoint: mean survival time, dose: 100.0 mg/kg/injection, schedule: Q01DX001 (ip), vehicle: saline with Tween-80 91 % of control | [4] 106 % of control | endpoint: mean survival time, dose: 200.0 mg/kg/injection, schedule: Q01DX001 (ip), vehicle: saline with Tween-80 90 % of control | [5] 97 % of control | endpoint: mean survival time, dose: 400.0 mg/kg/injection, schedule: Q01DX001 (ip), vehicle: saline with Tween-80 92 % of control | [6] 97 % of control

Cc1cc2c(Cl)ncnc2[nH]1
inactive: endpoint: median survival time, dose: 25.0 mg/kg/injection, schedule: Q01DX005 (ip), vehicle: saline 95 % of control | endpoint: median survival time, dose: 50.0 mg/kg/injection, schedule: Q01DX005 (ip), vehicle: saline 90 % of control | endpoint: median survival time, dose: 100.0 mg/kg/injection, schedule: Q01DX005 (ip), vehicle: saline 101 % of control

CC(C)/C(=N\Nc1ccc([N+](=O)[O-])cc1[N+](=O)[O-])c1ccccc1
inactive: [4] 97 % of control | [5] 101 % of control | [6] 103 % of control
